{"source": "patent US10081662B2", "about": "“Modified relaxin B chain peptides” (The Florey Institute of Neuroscience and Mental Health, priority 2014, dated 2018)", "key": {"[1]": {"tested_on": "mouse model of OVA-induced chronic allergic airway disease", "experiment": "Mouse model of OVA-induced chronic allergic airway disease", "assay_type": "in vivo", "conditions": "Balb/c mice", "source_text": "(§1) Seven to eight-week old male 129SV mice (which are sensitive to tissue injury and fibrosis) and age-matched female Balb/c mice (which are sensitive to changes in airway hyperresponsiveness) were used for the induction of isoproterenol-induced cardiomyopathy and ovalbumin-induced chronic allergic airways disease, respectively. 16 five week-old male C57BL/6 mice were used in the induction of prostate cancer growth. All animals were obtained from Monash Animal Services (Monash University, Clayton, Victoria, Australia) and housed under standard conditions (maintained on an 12 h light-12 h dark lighting cycle with free access to food and water) in the Department of Pharmacology Animal Room at Monash University.\nTwenty-four hours after the last vehicle/drug administration, methacholine-induced airway reactivity was assessed by invasive plethysmography as described before (Locke et al. 2007, Am J Respir Mol Biol 36, 625-632; Royce et al. 2009, Endocrinology 150, 2692-2699). Mice were anaesthetized intraperitoneally with 200 μg/g ketamine and 10 μg/g xylazine. Tracheotomy was performed using an 18-gauge tracheotomy tube and jugular vein cannulated with a 0.61 9 0.28 mm polyethylene tube (Microtube Extrusions, North Rocks, NSW, Australia), Mice were then placed in a plethysmograph chamber (Buxco Research Systems, Wilmington, N.C., USA) where increasing concentrations of acetyl-β-methacholine (from 31.25 μg/kg to 500 μg/kg) were delivered intravenously in five doses. After every dose, airway resistance and compliance were measured (Biosystem XA version 2.7.9; Buxco Electronics Inc, Wilmington, N.C., USA). The change in airway resistance calculated by the maximal resistance after each dose minus baseline resistance (phosphate buffered saline alone) was plotted against each dose of methacholine evaluated.\nThe mid zone of the male mouse heart and largest lung lobe from female Balb/c mice were fixed in 10% neutral buffered formalin for 24-48 h before being processed and embedded routinely in paraffin wax. Representative sections of tissue, 3-5 um each, were taken and stained with either picrosirius red (Samuel et al. 2011 Lab Invest 91, 675-690) for the detection of interstitial collagen or Masson's trichrome (Royce et al, 2009, Endocrinology 150, 2692-2699) for the detection of subepithelial basement membrane collagen deposition).\nChanges in picrosirius-red stained interstitial collagen or epithelial thickness and subepithelial collagen (fibrosis) around the airway lumen from Masson's trichrome-stained sections; which were all captured (at ×20 magnification) using a SPOT digital camera (Q Imaging, Burnaby, BC, Canada) and analysed with Image J 1.3 software (National Institutes of Health, Bethesda, Md.). Four to five fields per mid zone of the heart or 4-5 airways (of 150-350 μm in diameter) per mouse were assessed. Epithelial thickness and subepithelial collagen regions were traced with a digital pen and the thickness of each region calculated by the imaging software. Results were expressed as mean thickness ([…]) of the 4-5 airways sampled.\nThe apical region of the heart or second largest lung lobe from each mouse was treated as described previously (Samuel C S, et at., 2003, FASEB J 17, 121-123; Royce et at. 2009, Endocrinology 150, 2692-2699) for the determination of hydroxyproline content. Hydroxyproline values were estimated based on a standard curve constructed with serial dilutions of a 0.1 mg/mL stock of trans-4-hydroxyproline-L-proline (Sigma-Aldrich). Hydroxyproline values were then converted to collagen content as detailed previously (Samuel CS, et al. 2004. Endocrinology 145, 4125-4133) and, in turn, divided by the dry weight of each corresponding left ventricular or lung tissue assessed to yield collagen concentration (a measure of fibrosis).\nThe inventors also tested the fibrosis preventing activity of B7-33 C11.23S in a model of chronic allergic airway disease (AAD). […]"}, "[2]": {"tested_on": "RM1 mouse prostate tumour cells", "experiment": "Prostate tumour growth after injection of RM1 cells into prostates of C57BL/6 mice", "assay_type": "in vivo", "conditions": "day 10 after RM1 cells, s.c. mini-pump from day 2, H2 relaxin 0.15, B7-33 C11.23S 0.075 mg/kg/day, vs untreated", "source_text": "as §1\nH2 relaxin can induce prostate and other tumour growth. To measure the effect of B7-33 C11.23S on tumour growth, 16 five week-old male C57BL/6 mice (obtained from Monash Animal Services) were injected with 5000 RM1 (mouse prostate tumor) cells into their prostates to induce tumor growth. One sub-group of mice n=5) was left untreated until day 10 post-RM1 cell administration. […]"}, "RXFP1": {"molecular_target": "T1, RXFP1 (Homo sapiens, UniProt Q9HBX9)", "T1 construct": "expressed in transfected cells; host or cells: HEK-293T", "T1 sequence (Q9HBX9 1-757)": "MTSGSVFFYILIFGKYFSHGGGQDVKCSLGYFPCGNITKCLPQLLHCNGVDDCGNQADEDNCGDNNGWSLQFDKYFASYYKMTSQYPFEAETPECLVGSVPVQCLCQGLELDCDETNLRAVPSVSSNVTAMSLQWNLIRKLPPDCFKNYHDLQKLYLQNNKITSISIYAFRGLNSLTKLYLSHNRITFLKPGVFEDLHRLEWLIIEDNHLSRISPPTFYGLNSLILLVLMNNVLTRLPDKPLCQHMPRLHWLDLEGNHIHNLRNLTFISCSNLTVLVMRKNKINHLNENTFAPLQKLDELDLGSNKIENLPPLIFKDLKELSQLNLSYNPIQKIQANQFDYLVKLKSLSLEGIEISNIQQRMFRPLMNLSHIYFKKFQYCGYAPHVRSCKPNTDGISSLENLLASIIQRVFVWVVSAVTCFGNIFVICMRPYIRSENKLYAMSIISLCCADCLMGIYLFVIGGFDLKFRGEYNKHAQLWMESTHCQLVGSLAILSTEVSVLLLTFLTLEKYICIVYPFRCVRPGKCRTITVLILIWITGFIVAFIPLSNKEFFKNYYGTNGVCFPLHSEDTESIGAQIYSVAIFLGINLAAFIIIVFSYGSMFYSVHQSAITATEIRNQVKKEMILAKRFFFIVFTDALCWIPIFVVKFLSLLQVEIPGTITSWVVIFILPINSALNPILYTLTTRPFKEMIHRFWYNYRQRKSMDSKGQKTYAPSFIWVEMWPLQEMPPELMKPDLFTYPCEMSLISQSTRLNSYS", "experiment": "cAMP reporter gene assay (pCRE β-galactosidase) in HEK-293T cells transfected with RXFP1", "assay_type": "cell-based", "conditions": "FIG. 3A, ERK data not shown"}}, "note": "Peptide text beside a SMILES is read from it.", "data": [{"smiles": "CC[C@H](C)[C@H](NC(=O)[C@H](C)NC(=O)[C@@H](NC(=O)[C@H](CCC(N)=O)NC(=O)[C@H](C)NC(=O)[C@H](CCCNC(=N)N)NC(=O)[C@@H](NC(=O)[C@H](CC(C)C)NC(=O)[C@H](CCC(=O)O)NC(=O)[C@H](CCCNC(=N)N)NC(=O)CNC(=O)[C@H](CO)NC(=O)[C@H](CC(C)C)NC(=O)[C@H](CCCCN)NC(=O)[C@@H](NC(=O)[C@@H](N)C(C)C)[C@@H](C)CC)C(C)C)[C@@H](C)CC)C(=O)N[C@@H](CO)C(=O)NCC(=O)N[C@@H](CCSC)C(=O)N[C@@H](CO)C(=O)N[C@H](C(=O)N[C@@H](Cc1c[nH]c2ccccc12)C(=O)N[C@@H](CO)C(=O)N[C@@H](CCCCN)C(=O)N[C@@H](CCCNC(=N)N)C(=O)N[C@@H](CO)C(=O)N[C@@H](CC(C)C)C(N)=O)[C@@H](C)O", "note": "[B7-33 C11.23S] (H-VIKLSGRELVRAQIAISGMSTWSKRSL-NH2)", "values": [{"measurement": "Airway hyper-responsiveness (change in airway resistance to methacholine)", "setting": "[1]; OVA-induced increase, invasive plethysmography, FIG. 8D", "value": "attenuated"}, {"measurement": "Mean airway epithelial thickness", "setting": "[1]; compared to OVA treatment, FIG. 8B", "value": "significantly reduced"}, {"measurement": "Total lung collagen content (hydroxyproline analysis)", "setting": "[1]; relative to OVA treatment, FIG. 8C", "value": "normalised"}, {"measurement": "Prostate tumour size", "setting": "[2]", "value": "did not result in changes in tumour size relative to untreated"}, {"measurement": "Activation of cAMP and ERK signalling pathways in HEK-RXFP1 cells (in words)", "setting": "RXFP1", "value": "full agonist, but with poor potency"}]}]}
